Experimental findings from ChEMBL document CHEMBL5107969, “Alzheimer's disease: Updated multi-targets therapeutics are in clinical and in progress” (Eur J Med Chem, 2022) are described below.

One may read the IC50 as the concentration needed to halve the response being measured. Low values mean inhibition by little substance, high ones a need for much substance. Broadly, the inhibition is the percentage by which the read-out fell short of the control.

One data set relates to HEK293. As to the kind of experiment: Induction of Nrf2/ARE transcriptional activation in human HEK293 cells measured after 24 hrs by Bright-Glo luciferase assay. The note with it: filed as activator. It is filed as cell-based.
The nature of data set [1]: Drug concentration in […] mouse brain at 3 mg/kg, po measured after 30 mins. Conditions: read-out: Ct. The format is ADME, organism-based.
Another data set addresses Cholinesterase (Equus caballus, UniProt P81908). Description: Inhibition of equine serum BChE incubated for 15 mins by Ellman's method. It is filed as cell-free. A general note: DTNB colorimetry detects thiols as they appear.
Data set [2] addresses T1, Amyloid-beta precursor protein (Homo sapiens, UniProt P05067). As to the kind of experiment: Inhibition of self-induced amyloid beta (1 to 42) (unknown origin) aggregation at 25 uM incubated for 24 hrs by Thioflavin T-based fluorometric assay relative to control.
For data set [3], the target named is T1, Amyloid-beta precursor protein. As to the kind of experiment: Disaggregation of self-induced amyloid beta (1 to 42) (unknown origin) aggregation at 25 uM incubated for 24 hrs by Thioflavin T-based fluorometric assay relative to control.
A short description of data set [4]: Drug uptake in CD-1 mouse plasma at 10 mg/kg, po via gavage measured after 5 mins by LC-MS/MS analysis. It is filed as ADME, organism-based.
The nature of data set [5]: Drug uptake in CD-1 mouse brain at 10 mg/kg, po via gavage measured after 5 mins by LC-MS/MS analysis. The format is ADME, organism-based. The note with it: read-out: Ct.
Data set [6] addresses T1, Amyloid-beta precursor protein. As to the kind of experiment: Inhibition of human AChE-induced amyloid beta (1 to 40) aggregation (unknown origin).
The species entered for a further data set is Homo sapiens. As to the kind of experiment: Selectivity ratio of Ki for sigma1 receptor (unknown origin) to Ki for sigma2 receptor (unknown origin).

T1 sequence (P05067 whole entry): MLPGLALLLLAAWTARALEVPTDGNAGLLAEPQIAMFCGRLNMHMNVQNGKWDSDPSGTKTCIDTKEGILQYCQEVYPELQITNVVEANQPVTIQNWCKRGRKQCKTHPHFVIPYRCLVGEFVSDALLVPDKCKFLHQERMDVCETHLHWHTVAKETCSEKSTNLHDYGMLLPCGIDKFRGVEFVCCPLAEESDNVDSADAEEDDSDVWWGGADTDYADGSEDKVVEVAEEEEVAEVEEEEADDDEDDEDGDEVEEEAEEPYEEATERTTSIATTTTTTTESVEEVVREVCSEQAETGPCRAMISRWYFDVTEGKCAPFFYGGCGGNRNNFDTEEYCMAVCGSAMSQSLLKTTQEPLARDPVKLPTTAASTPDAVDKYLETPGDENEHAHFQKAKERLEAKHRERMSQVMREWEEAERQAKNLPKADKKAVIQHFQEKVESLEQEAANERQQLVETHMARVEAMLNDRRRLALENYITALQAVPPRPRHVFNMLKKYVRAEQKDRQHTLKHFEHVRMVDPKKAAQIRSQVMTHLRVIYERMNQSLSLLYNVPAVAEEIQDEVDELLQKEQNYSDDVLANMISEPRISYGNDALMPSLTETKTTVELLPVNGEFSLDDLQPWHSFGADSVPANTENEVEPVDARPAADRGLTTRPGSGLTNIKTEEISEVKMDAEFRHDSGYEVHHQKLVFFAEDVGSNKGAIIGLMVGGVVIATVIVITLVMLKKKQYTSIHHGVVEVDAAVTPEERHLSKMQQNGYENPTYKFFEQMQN
Chain of Cholinesterase (P81908 whole entry): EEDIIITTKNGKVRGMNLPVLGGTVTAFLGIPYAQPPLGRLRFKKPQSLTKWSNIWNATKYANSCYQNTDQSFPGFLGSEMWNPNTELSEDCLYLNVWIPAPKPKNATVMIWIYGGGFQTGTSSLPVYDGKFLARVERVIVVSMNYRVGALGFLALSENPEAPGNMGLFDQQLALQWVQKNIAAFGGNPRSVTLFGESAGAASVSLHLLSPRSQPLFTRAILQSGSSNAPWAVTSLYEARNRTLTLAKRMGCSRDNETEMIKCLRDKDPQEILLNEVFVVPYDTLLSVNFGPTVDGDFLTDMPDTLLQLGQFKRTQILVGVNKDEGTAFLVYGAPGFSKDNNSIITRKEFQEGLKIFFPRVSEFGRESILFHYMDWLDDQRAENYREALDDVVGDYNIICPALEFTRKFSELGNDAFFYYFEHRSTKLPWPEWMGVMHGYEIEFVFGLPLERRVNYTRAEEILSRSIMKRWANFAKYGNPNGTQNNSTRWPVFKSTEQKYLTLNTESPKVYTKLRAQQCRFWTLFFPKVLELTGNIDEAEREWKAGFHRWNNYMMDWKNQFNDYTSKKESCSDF

Molecule `CCCOc1ccc2[nH]cc(CCNC(=O)CN(CCc3c[nH]c4ccc(OCc5ccccc5)cc34)C(=O)CCCC[C@@H]3CCSS3)c2c1` displayed a CD with HEK293 of 28.1 µM. In the case of `NC1=NC(c2ccc(F)cc2)NC(=O)N1` (centres undefined), in data set [1], the concentration at 0.5 h was 620 nM. Turning to `CCN(CCCCOc1ccc(/C=C/C(=O)N2CCc3ccccc3C2)cc1OC)Cc1ccccc1`, the half-maximal inhibitory concentration (IC50) at Cholinesterase was 0.0089 µM. In [2], this molecule displayed an inhibition of 53.9%. The molecule further showed an Activity in [3] of 43.8%.

For `CN(C)c1ccc(O)c(CNc2cccc3ccc(CO)nc23)c1`, the figures for the concentration at 5 min in data set [4] and in data set [5] were 5.91 ng/mL and 14.3 ng/mL, respectively.

For `CCN(CCCCCCNC1=CC(=O)C(NCCCCCCN(CC)Cc2ccccc2OC)=CC1=O)Cc1ccccc1OC` [MEMOQUIN], half-maximal inhibition in data set [6] (IC50) was put at 28.3 µM. As to `O=c1ccoc2ccc(OCCCN3CCCCCC3)cc12`, the Ratio Ki in the data set listed under Homo sapiens was determined as 28.
